The text below walks through data of patent US11229618B2 (Amarin Pharmaceuticals Ireland Limited, priority 2012, dated 2022).

Assay [1] concerns fasting TG levels. Put plainly: ANCHOR: fasting TG lowering and LDL-C. The assay is classed as in vivo, human. As to conditions: for median percent reductions in TG from baseline, 4 g/day compared with 2 g/day: 12 weeks. How it is done:
A multi-center, placebo-controlled, randomized, double-blind, 12-week study was performed to evaluate the efficacy and safety of >96% E-EPA in patients with fasting triglyceride levels≥200 mg/dl and <500 mg/dl despite statin therapy (the mean of two qualifying entry values needed to be ≥185 mg/dl and at least one of the values needed to be ≥200 mg/dl). The primary objective of the study was to determine the efficacy of >96% E-EPA 2 g daily and 4 g daily, compared to placebo, in lowering fasting TG levels in patients with high risk for cardiovascular disease and with fasting TG levels≥200 mg/dL and <500 mg/dL, despite treatment to LDL-C goal on statin therapy.
The primary efficacy variable for the double-blind treatment period was percent change in TG from baseline to Week 12 endpoint. The secondary efficacy variables for the double-blind treatment period included the following: • Percent changes in total cholesterol (TC), high-density lipoprotein cholesterol (HDL-C), LDL-C, calculated non-HDL-C, and very low-density lipoprotein cholesterol (VLDL-C) from baseline to Week 12 endpoint; • Percent change in very low-density lipoprotein TG from baseline to Week 12; • Percent changes in apolipoprotein A-I (apo A-I), apolipoprotein B (apo B), and apo A-I/apo B ratio from baseline to Week 12; • Percent changes in lipoprotein(a) from baseline to Week 12; • Percent changes in LDL particle number and size, measured by nuclear magnetic resonance, from baseline to Week 12; • Percent change in remnant-like particle cholesterol from baseline to Week 12; • Percent change in oxidized LDL from baseline to Week 12; • Changes in FPG and HbA1c from baseline to Week 12; • Change in insulin resistance, as assessed by the homeostasis model index insulin resistance, from baseline to Week 12; • Percent change in lipoprotein associated phospholipase A2 (Lp-PLA2) from baseline to Week 12; • Change in intracellular adhesion molecule-1 from baseline to Week 12; • Change in interleukin-2 from baseline to Week 12; • Change in plasminogen activator inhibitor-1 from baseline to Week 12. Note: this parameter will only be collected at sites with proper storage conditions; • Change in hsCRP from baseline to Week 12; and • Change in plasma concentration and red blood cell membrane content of fatty acid from baseline to Week 12 including EPA, docosapentaenoic acid (DPA), docosahexaenoic acid (DHA), arachidonic acid (AA), dihomo-γ-linolenic acid (DGLA), the ratio of EPA/AA, ratio of oleic acid/stearic acid (OA/SA), and the ratio of total omega-3 acids over total omega-6 acids.
The primary efficacy analysis was performed using a 2-way analysis of covariance (ANCOVA) model with treatment as a factor and baseline TG value as a covariate. […]

The nature of assay [2]: MARINE: RBC fatty acid concentrations, ratios and class proportions (GC/FID). Format: in vivo, human. How it is done:
A multi-center, placebo-controlled randomized, double-blind, 12-week study with an open-label extension is performed to evaluate the efficacy and safety of AMR101 in patients with fasting triglyceride levels≥500 mg/dL. The primary objective of the study is to determine the efficacy of AMR101 2 g daily and 4 g daily, compared to placebo, in lowering fasting TG levels in patients with fasting TG levels≥500 mg/dL and ≤1500 mg/dL (≥5.65 mmol/L and ≤16.94 mmol/L).
Eligible patients will be randomly assigned at Visit 4 (Week 0) to receive orally AMR101 2 g daily, AMR101 4 g daily, or placebo for the 12-week double-blind treatment period. AMR101 is provided in 1 g liquid-filled, oblong, gelatin capsules. The matching placebo capsule is filled with light liquid paraffin and contains 0 g of AMR101. During the double-blind treatment period, patients will take 2 capsules (AMR101 or matching placebo) in the morning and 2 in the evening for a total of 4 capsules per day. Patients in the AMR101 2 g/day treatment group will receive 1 AMR101 1 g capsule and 1 matching placebo capsule in the morning and in the evening. Patients in the AMR101 4 g/day treatment group will receive 2 AMR101 1 g capsules in the morning and evening.
Lipids were extracted from plasma and RBC suspensions and converted into fatty acid methyl esters for analysis using a standard validated gas chromatography/flame ionization detection method. Fatty acid parameters were compared between EPA treatment groups and placebo using an ANCOVA model with treatment, gender, type of statin therapy, and presence of diabetes as factors, and the baseline parameter value as a covariate. LSMs, SEs, and 2-tailed 95% confidence intervals for each treatment group and for each comparison were determined.
The monounsaturated fatty acid group included myristoleic, palmitoleic, cis-vaccenic, oleic, gondoic/gadoleic, erucic and nervonic acids. The saturated fatty acid group included myristic, palmitic, stearic, arachidic, behenic and lignoceric acids. The “total omega-3” group included α-linolenic, stearidonic, eicosatrienoic, ω-3 arachidonic, eicosapentaenoic, ω-3 docosapentaenoic and docosahecaenoic acids. The “total omega-6” group included linoleic, γ-linolenic, eicosadienoic, dihomo-γ-linolenic, ω-6 arachidonic, adrenic, and ω-6 docosapentaenoic acids. The “total fatty acid” group represented the sum of the monounsaturated, saturated, total omega-3 and total omega-6 groups.

The mark [3] stands for this setting: red blood cell, IPE 4 g/day vs placebo, week 12, P <0.0001.

Regarding `CC/C=C\C/C=C\C/C=C\C/C=C\C/C=C\CCCC(=O)OCC` [IPE, all-cis eicosa-5,8,11,14,17-pentaenoic acid ethyl ester], the “effect on LDL-C” value in assay [1] is recorded as “without raising LDL-C”. Further, the “median percent reductions in TG from baseline, 4 g/day compared with 2 g/day” value in assay [1] is “higher with IPE 4 g/day than with 2 g/day”; in assay [1] (listed as EPA), “higher for subjects administered about 4 grams of EPA per day”. Further, the “effect on TG levels” value in assay [1] (patients with high TG levels on statin therapy) was “significantly reduced TG levels”. Also, the “Mono-unsaturated, proportion to total fatty acids, Mean placebo-adjusted percent change from baseline” value in assay [2] (RBCs, IPE 2 g/day vs placebo, P 0.0435) is given as −3.1%; in assay [2] (RBCs, IPE 4 g/day vs placebo, P 0.0154), −3.9%. Further, the “Saturated, proportion to total fatty acids, Mean placebo-adjusted percent change from baseline” value was 1.1% in assay [2] (RBCs, IPE 2 g/day vs placebo, P 0.3278) and 1.9% in assay [2] (RBCs, IPE 4 g/day vs placebo, P 0.1145). In addition, the “Total omega-6, proportion to total fatty acids, Mean placebo-adjusted percent change from baseline” value in assay [2] (RBCs, IPE 4 g/day vs placebo, P <0.0001) is reported as −17.3%. The “AA Mean placebo-adjusted percent change from baseline” value in assay [2] (red blood cell, IPE 2 g/day vs placebo, week 12, P 0.0008) is −8.0%. The “Linoleic Mean placebo-adjusted percent change from baseline” value in assay [2] (red blood cell, IPE 2 g/day vs placebo, week 12, P 0.1278) is −4.7%; in assay [2] (setting [3]), −13.0%. Further, the “Oleic Mean placebo-adjusted percent change from baseline” value in assay [2] (red blood cell, IPE 2 g/day vs placebo, week 12, P 0.3736) is listed as −2.1%; in assay [2] (red blood cell, IPE 4 g/day vs placebo, week 12, P 0.1325) it was −3.7%. For the same compound, the “DHA Mean placebo-adjusted percent change from baseline” value in assay [2] (red blood cell, IPE 2 g/day vs placebo, week 12, P 0.5859) is −1.8%; in assay [2] (red blood cell, IPE 4 g/day vs placebo, week 12, P 0.1216), −5.2%. For the same compound, the “Stearic Mean placebo-adjusted percent change from baseline” value in assay [2] (red blood cell, IPE 2 g/day vs placebo, week 12, P 0.5886) is given as 1.1%; in assay [2] (red blood cell, IPE 4 g/day vs placebo, week 12, P 0.7565) it was −0.7%. In addition, the “Palmitic Mean placebo-adjusted percent change from baseline” value in assay [2] (red blood cell, IPE 2 g/day vs placebo, week 12, P 0.9465) is listed as −0.1%; in assay [2] (red blood cell, IPE 4 g/day vs placebo, week 12, P 0.7427) it was −0.7%. Besides, the “DPAn-3 Mean placebo-adjusted percent change from baseline” value was 86.4% in assay [2] (red blood cell, IPE 2 g/day vs placebo, week 12, P <0.0001) and 105.6% in assay [2] (setting [3]).
